The conditions of data set [1]: cited from earlier work.
A further data set relates to CRC and MM. The following applies: cited from earlier work.
Data set [2] concerns β-catenin/TCF interaction. The following applies: cited from earlier work.
In a further data set the target is T1, GST-β-catenin (human, UniProt P35222 1-781).
T1 sequence (looked up): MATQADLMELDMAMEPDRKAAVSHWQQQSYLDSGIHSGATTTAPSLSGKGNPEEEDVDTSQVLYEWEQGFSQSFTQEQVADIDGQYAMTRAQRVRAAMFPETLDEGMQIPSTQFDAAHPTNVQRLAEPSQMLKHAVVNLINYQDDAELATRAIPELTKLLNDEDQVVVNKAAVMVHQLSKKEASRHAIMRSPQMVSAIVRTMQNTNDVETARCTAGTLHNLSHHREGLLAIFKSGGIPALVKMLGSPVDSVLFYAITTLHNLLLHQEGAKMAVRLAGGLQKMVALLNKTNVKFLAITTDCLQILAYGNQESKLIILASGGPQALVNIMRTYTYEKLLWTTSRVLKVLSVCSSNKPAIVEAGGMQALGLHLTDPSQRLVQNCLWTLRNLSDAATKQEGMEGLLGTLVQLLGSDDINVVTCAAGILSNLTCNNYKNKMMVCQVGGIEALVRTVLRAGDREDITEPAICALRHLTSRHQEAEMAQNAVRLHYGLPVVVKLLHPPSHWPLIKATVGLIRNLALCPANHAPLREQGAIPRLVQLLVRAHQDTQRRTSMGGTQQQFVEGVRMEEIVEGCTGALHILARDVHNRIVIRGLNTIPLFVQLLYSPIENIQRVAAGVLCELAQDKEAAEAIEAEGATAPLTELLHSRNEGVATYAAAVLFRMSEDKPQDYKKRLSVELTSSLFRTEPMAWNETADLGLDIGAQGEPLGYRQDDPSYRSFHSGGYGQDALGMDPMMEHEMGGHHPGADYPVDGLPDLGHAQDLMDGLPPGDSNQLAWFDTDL
The data set can be described thus: pull-down.

The source of these data is PMC3631420 (Science translational medicine, 2012).

As to PKF115-584, in data set [1], the “toxicity in treated mice” value was “induced severe bone marrow hypoplasia, anemia, and generalized wasting”. Moreover, in the data set on CRC and MM, the “growth of CRC and MM” value is on record as “reduced the growth”. Besides, the Wnt-specific transcriptional activity entry in data set [2] is reported as “blocked Wnt-specific transcriptional activity”.

B1: His-BCL9 (residues 243–469) (domain or fragment, human, UniProt O00512 243-469, looked up)
chain: NQDQNSSQNTRLQPTPPIPAPAPKPAAPPRPLDRESPGVENKLIPSVGSPASSTPLPPDGTGPNSTPNNRAVTPVSQGSNSSSADPKAPPPPPVSSGEPPTLGENPDGLSQEQLEHRERSLQTLRDIQRMLFPDEKEFTGAQSGGPQQNPGVLDGPQKKPEGPIQAMMAQSQSLGKGPGPRTDVGAPFGPQGHRDVPFSPDEMVPPSMNSQSGTIGPDHLDHMTPEQ
Take B1: the binding result in the data set with GST-β-catenin is listed as “binds”.
